Experimental data taken from US8030478B2, “Method for nucleic acid replication and novel artificial base pairs” (priority 2005, dated 2011).
Like-named read-outs stand apart in the source and are kept apart here. Marks after values point to notes of the source that are not given here.

Target: T7 RNA polymerase (Escherichia phage T7, UniProt P00573)
Details: [α-32P]ATP, natural NTP 1 mM; for Composition of nucleotide incorporated as 5′ neighbor of A: Gp: theoretical [2]
[1] = Entry 1, template temp35Ds-3, Pa 1 mM, theoretical [0]
[2] = Entry 1, template temp35Ds-3, Pa 1 mM, theoretical [1]
[3] = Entry 2, template temp35Ds-3, Pa 3 mM, theoretical [0]
[4] = Entry 2, template temp35Ds-3, Pa 3 mM, theoretical [1]
[5] = Entry 3, template temp35A-3, Pa 1 mM, theoretical [0]
[6] = Entry 3, template temp35A-3, Pa 1 mM, theoretical [1]
[7] = Entry 4, template temp35A-3, Pa 3 mM, theoretical [0]
[8] = Entry 4, template temp35A-3, Pa 3 mM, theoretical [1]
[9] = Entry 5, template temp35G-3, Pa 1 mM, theoretical [0]
[10] = Entry 5, template temp35G-3, Pa 1 mM, theoretical [1]
[11] = Entry 6, template temp35G-3, Pa 3 mM, theoretical [0]
[12] = Entry 6, template temp35G-3, Pa 3 mM, theoretical [1]

T7 RNA polymerase, sequence (P00573 whole entry): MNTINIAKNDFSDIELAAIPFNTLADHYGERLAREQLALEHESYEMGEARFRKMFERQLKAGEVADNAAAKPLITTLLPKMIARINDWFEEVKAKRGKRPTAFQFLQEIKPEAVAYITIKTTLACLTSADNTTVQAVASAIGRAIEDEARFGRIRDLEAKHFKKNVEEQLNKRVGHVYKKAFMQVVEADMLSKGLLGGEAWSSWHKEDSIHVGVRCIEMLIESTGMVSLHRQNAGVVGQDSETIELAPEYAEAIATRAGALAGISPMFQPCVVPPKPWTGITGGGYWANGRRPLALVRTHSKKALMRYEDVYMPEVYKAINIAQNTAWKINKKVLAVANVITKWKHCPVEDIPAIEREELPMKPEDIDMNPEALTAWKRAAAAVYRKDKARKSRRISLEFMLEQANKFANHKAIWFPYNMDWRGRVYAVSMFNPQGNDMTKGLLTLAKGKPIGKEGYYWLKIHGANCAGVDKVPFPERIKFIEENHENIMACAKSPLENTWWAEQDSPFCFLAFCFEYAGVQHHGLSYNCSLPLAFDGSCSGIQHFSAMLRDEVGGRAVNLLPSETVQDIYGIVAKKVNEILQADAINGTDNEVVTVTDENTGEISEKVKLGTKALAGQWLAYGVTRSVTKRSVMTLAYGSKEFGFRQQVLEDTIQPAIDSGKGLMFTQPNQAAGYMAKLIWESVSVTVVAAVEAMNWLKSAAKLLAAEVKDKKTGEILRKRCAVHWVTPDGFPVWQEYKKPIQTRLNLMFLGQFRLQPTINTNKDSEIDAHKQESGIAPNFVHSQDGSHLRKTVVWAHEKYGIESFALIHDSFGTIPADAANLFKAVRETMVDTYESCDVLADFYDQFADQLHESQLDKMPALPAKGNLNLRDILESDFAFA

## O=Cc1cccn1[C@@H]1O[C@H](COP(=O)(O)OP(=O)(O)OP(=O)(O)O)[C@@H](O)[C@H]1O [PaTP, 1-(β-D-Ribofuranosyl)pyrrole-2-carbaldehyde 5′-triphosphate]
[1]
  Composition of nucleotide incorporated as 5′ neighbor of A: Cp: 0.01 [0]
  Composition of nucleotide incorporated as 5′ neighbor of A: Up: 0.02 [0]
[2]
  Composition of nucleotide incorporated as 5′ neighbor of A: Ap: 1.03^c [1]^d
  Composition of nucleotide incorporated as 5′ neighbor of A: Np (Pap): 0.97 [1]
Entry 1, template temp35Ds-3, Pa 1 mM
  Composition of nucleotide incorporated as 5′ neighbor of A: Gp: 1.97 [2]
[3]
  Composition of nucleotide incorporated as 5′ neighbor of A: Cp: 0.01 [0]
  Composition of nucleotide incorporated as 5′ neighbor of A: Up: 0.01 [0]
[4]
  Composition of nucleotide incorporated as 5′ neighbor of A: Ap: 1.01 [1]
  Composition of nucleotide incorporated as 5′ neighbor of A: Np (Pap): 1.00 [1]
Entry 2, template temp35Ds-3, Pa 3 mM
  Composition of nucleotide incorporated as 5′ neighbor of A: Gp: 1.96 [2]
[5]
  Composition of nucleotide incorporated as 5′ neighbor of A: Cp: n.d.^f [0]
  Composition of nucleotide incorporated as 5′ neighbor of A: Np (Pap): n.d. [0]
[6]
  Composition of nucleotide incorporated as 5′ neighbor of A: Ap: 0.99 [1]
  Composition of nucleotide incorporated as 5′ neighbor of A: Up: 1.04 [1]
Entry 3, template temp35A-3, Pa 1 mM
  Composition of nucleotide incorporated as 5′ neighbor of A: Gp: 1.96 [2]
[7]
  Composition of nucleotide incorporated as 5′ neighbor of A: Cp: n.d. [0]
  Composition of nucleotide incorporated as 5′ neighbor of A: Np (Pap): n.d. [0]
[8]
  Composition of nucleotide incorporated as 5′ neighbor of A: Ap: 0.99 [1]
  Composition of nucleotide incorporated as 5′ neighbor of A: Up: 1.03 [1]
Entry 4, template temp35A-3, Pa 3 mM
  Composition of nucleotide incorporated as 5′ neighbor of A: Gp: 1.97 [2]
[9]
  Composition of nucleotide incorporated as 5′ neighbor of A: Np (Pap): n.d. [0]
  Composition of nucleotide incorporated as 5′ neighbor of A: Up: 0.01 [0]
[10]
  Composition of nucleotide incorporated as 5′ neighbor of A: Ap: 1.02 [1]
  Composition of nucleotide incorporated as 5′ neighbor of A: Cp: 1.01 [1]
Entry 5, template temp35G-3, Pa 1 mM
  Composition of nucleotide incorporated as 5′ neighbor of A: Gp: 1.96 [2]
[11]
  Composition of nucleotide incorporated as 5′ neighbor of A: Np (Pap): n.d. [0]
  Composition of nucleotide incorporated as 5′ neighbor of A: Up: 0.01 [0]
[12]
  Composition of nucleotide incorporated as 5′ neighbor of A: Ap: 1.01 [1]
  Composition of nucleotide incorporated as 5′ neighbor of A: Cp: 1.00 [1]
Entry 6, template temp35G-3, Pa 3 mM
  Composition of nucleotide incorporated as 5′ neighbor of A: Gp: 1.98 [2]
